Each structure is given as a SMILES string.

A short description of this series: gradient 5% acetonitrile 3 min, to 50% in 2 min, to 85% in 15 min, held 3 min, 100 µL/min. Conditions: column: Zorbax Extend-C18 2.1 x 50 mm; eluents: water / acetonitrile, 0.1% formic acid. In outline:
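A Zorbax Extend-C18 column (2.1 × 50 mm, 1.8 μm) run at 100 μL/min with water and acetonitrile, both containing 0.1% formic acid, separated mixtures of ~100 pure standards. The HPLC was coupled to a quadrupole time-of-flight mass spectrometer operated in positive and negative ionization mode, with dead and dwell volumes of 40 μL and 900 μL. Each retention time was taken from a computationally picked adduct peak that was then manually inspected.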
For the compound `O=C(NCc1ccccn1)C1CCc2sc(C(=O)N3CCCCCC3)cc2C1` (stereo not drawn), the RP-LC retention time was found to be 552 s. Then `Cc1ccc(NC(=O)C2(c3ccc4c(c3)OC(F)(F)O4)CC2)nc1-c1cccc(C(=O)O)c1`, with 1130 s.

As for `O=C(Cn1c(=O)c2cc(-c3ccco3)nn2c2ncccc21)Nc1ccc(F)c(F)c1`, the RP-LC retention time is 843 s. On to `Cc1c2cnn(-c3ccccc3)c(=O)c2c(C)n1CCCC(=O)N1CCN(c2ccccn2)CC1`, for which the RP-LC retention time was found to be 611 s. Then `CCn1c(=O)c(C(=O)NCc2cccc(OC)c2)nc2cccnc21`, with 780 s.

As for `COc1ccc(OCC(=O)Nc2ccc(-c3nc(-c4ccc(OC)cc4)no3)cc2)cc1`, the RP-LC retention time stood at 1180 s. In turn, `CSc1ccc(CNC(=O)CCc2nnc3c4cc(-c5ccccc5)nn4ccn23)cc1` yielded an RP-LC retention time of 780 s. Compound `CCOC(=O)c1cccc(NS(=O)(=O)c2cc(-c3c(C)noc3NC(C)=O)ccc2OC)c1` registered an RP-LC retention time of 781 s. Regarding `Cc1ccc(-c2cc(C(=O)N3CCC(NC(=O)c4cc(C5CC5)[nH]n4)CC3)[nH]n2)cc1C`, the RP-LC retention time was 698 s. `O=C(C1CCN(c2nc3ccc(-c4cccnc4)nc3s2)CC1)N1CCCC1` yielded an RP-LC retention time of 615 s. The same measure for `CCc1cc(=O)n(CC(=O)NCc2ccc(F)c(Cl)c2)c(N2CCOCC2)n1`: 764 s. The compound `O=C(Cc1ccccc1Cl)Nc1ccc(-c2nc(-c3ccccc3)co2)cc1` had an RP-LC retention time of 1150 s.

In turn, `CCN(CC)c1nc2cc(C(=O)N3CCN(c4ccccn4)CC3)ccc2c(=O)n1Cc1ccccc1` gave an RP-LC retention time of 729 s. For `Cc1cc(C)n(-c2cc(NCc3ccccn3)ncn2)n1`, the RP-LC retention time is 600 s. Consider `Cc1cc(NC(C)C)n2nc(-c3ccc(C(C)(C)C)cc3)nc2n1`, for which the RP-LC retention time was 988 s. Regarding `COC[C@@H]1CN(Cc2cn(C)c3ccccc23)C[C@H]1c1nc(C)no1`, the RP-LC retention time was 656 s.

`CC(=O)Nc1cc(C(=O)NCc2ccccc2C)c2ccc(C)nc2c1` registered an RP-LC retention time of 610 s. The same measure for `COc1ccccc1C(=O)NC1CCN(c2ccccc2)C1=O` (stereo not drawn): 789 s; for `Cc1ccc2cc(CCC(=O)NCCN3CCCCC3)c(=O)[nH]c2c1`: 601 s. In turn, `CCOc1ccc(CCNC(=O)c2ccc3c(c2)N(CC)C(=O)c2ccccc2O3)cc1OCC` showed an RP-LC retention time of 966 s. `CC(C)S(=O)(=O)c1cccc(C(=O)Nc2nc(-c3cc([N+](=O)[O-])cs3)cs2)c1` registered an RP-LC retention time of 914 s. In turn, `CO[C@H]1C(=O)N(C2CCN(S(=O)(=O)c3cccs3)CC2)[C@H]1c1ccncc1` registered an RP-LC retention time of 619 s.

With `Nc1ccccc1-c1nc2ccncc2[nH]1`, the RP-LC retention time was found to be 708 s. Then `O=C(Nc1ccc(F)cc1F)N1CCN(Cc2nc3cc(Cl)ccc3o2)CC1`, with 763 s; and `CCc1ccccc1NC(=O)Cn1c(N)nc(C(C)C)cc1=O`, with 638 s; and `O=C(Nc1ccccc1)N1CCc2nc(-c3ccc(Cl)cc3)ncc2C1`, with 997 s.

For the compound `CCc1noc(-c2ccnc(-n3ncc(C(=O)N4CCSCC4)c3C)c2)n1`, the RP-LC retention time came out at 904 s.

Consider `CCc1ccc(C2=C(C)C(N3CCC(C(=O)NC(C)C)CC3)=NS2(=O)=O)cc1`, for which the RP-LC retention time turned out to be 812 s. The same measure for `CC(C)CN1CCN(C(=O)CN2CCN(Cc3ccccc3)C2=O)CC1`: 579 s.

As to `O=C(Nc1cccc(Cl)c1F)N1CCc2nc[nH]c2C1`, the RP-LC retention time was found to be 589 s. Then `Nc1nc(N)c2ncn(-c3ccccc3)c2n1`, with 584 s; and `Cc1ccc(C(=O)CC2(O)C(=O)Nc3ccccc32)cc1` (stereo not drawn), with 704 s; and `COCCCNC(=O)C1CCN(c2cncnc2N2CCCCC2)CC1`, with 606 s.

The values are drawn from the METLIN SMRT retention time set (Domingo-Almenara et al. 2019).
